Assay results reported in the Deep4Chem optical property database.
Each block holds one molecule with its values, some of them ahead of it.

Test: solvent given as SMILES

SMILES: c1ccc(-c2ccc(-c3ccc(-c4cc(-c5ccc(-c6ccc(-c7ccccc7)cc6)cc5)cc(-c5ccc(-c6ccc(-c7ccccc7)cc6)cc5)c4)cc3)cc2)cc1
absorption maximum (in C1COCCO1): 306.5 nm

SMILES: CCN(CC)c1ccc(-c2nc3c(c4c2-c2ccc(C#N)cc2CC4)-c2ccc(C#N)cc2CC3)cc1
absorption maximum (in C1CCOC1): 364 nm | absorption maximum (in CC#N): 360 nm | absorption maximum (in CCCCCC): 369 nm | absorption maximum (in CCOC(C)=O): 358 nm | absorption maximum (in CO): 360 nm | absorption maximum (in CS(C)=O): 375 nm | absorption maximum (in Cc1ccccc1): 368 nm | absorption maximum (in ClCCl): 363 nm

SMILES: CC1=[N+]2C(=C(c3c4ccccc4c(-c4ccccc4)c4ccccc34)c3ccc(C)n3[B-]2(F)F)C=C1
absorption maximum (in CC#N): 514 nm | absorption maximum (in CCCCCC): 516 nm | absorption maximum (in CCO): 516 nm | absorption maximum (in CN(C)C=O): 517 nm | absorption maximum (in Cc1ccccc1): 519 nm | absorption maximum (in ClCCl): 518 nm

SMILES: CCc1s[c+](N2CCCCC2)sc1-c1cc(C)cc(I)c1[O-]
absorption maximum (in C1CCOC1): 409 nm | absorption maximum (in CC#N): 405 nm | absorption maximum (in CO): 360 nm | absorption maximum (in ClCCl): 406 nm

SMILES: Fc1nc(F)c(F)c(C#Cc2cc3c(cc2C#Cc2c(F)c(F)nc(F)c2F)OC2(CCCCC2)O3)c1F
absorption maximum (in CC#N): 360 nm

SMILES: CN(C)c1ccc(/C=C/c2cnccn2)cc1
absorption maximum (in ClCCl): 389 nm

SMILES: O=C1c2ccc3c4ccc5c6c(ccc(c7ccc(c2c37)C(=O)N1c1ccncc1)c64)C(=O)N(c1ccncc1)C5=O
absorption maximum (in C1CCOC1): 522 nm | absorption maximum (in C1COCCO1): 525 nm | absorption maximum (in CC(C)=O): 519 nm | absorption maximum (in CC(C)O): 525 nm | absorption maximum (in CCCCO): 525 nm | absorption maximum (in CCO): 524 nm | absorption maximum (in CCOC(C)=O): 519 nm | absorption maximum (in CN(C)C=O): 524 nm | absorption maximum (in CO): 525 nm | absorption maximum (in CS(C)=O): 528 nm | absorption maximum (in ClC(Cl)(Cl)Cl): 524 nm | absorption maximum (in ClC(Cl)Cl): 530 nm

SMILES: CCNCC
absorption maximum (in CCCCCC): 193 nm

SMILES: CN(C)c1ccc(C2=Nc3scc(-c4ccccc4)[n+]3[B-](F)(F)O2)cc1
absorption maximum (in C1CCOC1): 406 nm | absorption maximum (in CC#N): 406 nm | absorption maximum (in Cc1ccccc1): 409 nm | absorption maximum (in ClCCl): 411 nm

SMILES: N#C/C(=C\c1ccncc1)c1nc(-c2ccccc2)cs1
absorption maximum (in CC#N): 361 nm | absorption maximum (in CCO): 370 nm | absorption maximum (in CN(C)C=O): 368 nm | absorption maximum (in CS(C)=O): 371 nm | absorption maximum (in Cc1ccccc1): 372 nm | absorption maximum (in ClCCl): 418 nm

SMILES: CC1CC=C(c2ccc(-c3cccs3)s2)CC1 (stereo not drawn)
absorption maximum (in C1CCOC1): 341 nm | absorption maximum (in CC#N): 341 nm | absorption maximum (in CCCCCC): 341 nm | absorption maximum (in CCO): 336 nm | absorption maximum (in OCCOCCO): 341 nm | absorption maximum (in c1ccncc1): 343 nm

SMILES: c1ccc(-c2ccc3c(c2)c2cc(-c4ccccc4)ccc2n3-c2ccc3c(c2)c2cc(-n4c5ccc(-c6ccccc6)cc5c5cc(-c6ccccc6)ccc54)ccc2n3-c2ccc(-c3nc(-c4ccccc4)nc(-c4ccccc4)n3)cc2)cc1
absorption maximum (in Cc1ccccc1): 362 nm

SMILES: CC(C)(C)c1cc(C[n+]2ccc(-c3cc[n+](Cc4cc(C(C)(C)C)cc(C(C)(C)C)c4)cc3)cc2)cc(C(C)(C)C)c1
absorption maximum (in CC#N): 259 nm

SMILES: CC(C)(C)c1ccc(-c2nc3c4ccc(-c5cc6ccccc6c6ccccc56)cc4c4cc(-c5cc6ccccc6c6ccccc56)ccc4c3n2-c2ccc(C(C)(C)C)cc2)cc1
absorption maximum (in C1CCOC1): 325 nm | absorption maximum (in C1COCCO1): 325 nm | absorption maximum (in CC#N): 324 nm | absorption maximum (in CCCCCC): 325 nm | absorption maximum (in CCCCOCCCC): 326 nm | absorption maximum (in CCN(CC)CC): 325 nm | absorption maximum (in CCOC(C)=O): 324 nm | absorption maximum (in CCOCC): 234 nm | absorption maximum (in CN(C)C=O): 328 nm | absorption maximum (in Cc1ccccc1): 327 nm | absorption maximum (in ClC=C(Cl)Cl): 327 nm | absorption maximum (in ClCCl): 328 nm

SMILES: COc1ccc2c(c1)sc1[n+]2[B-](F)(F)OC(c2ccc(N(C)C)cc2)=N1
absorption maximum (in C1CCOC1): 430 nm | absorption maximum (in CC#N): 426 nm | absorption maximum (in CC(C)=O): 431 nm | absorption maximum (in Cc1ccccc1): 427 nm | absorption maximum (in ClCCl): 430 nm

SMILES: COc1ccc(C(=Cc2ccc(/C=C/c3ccc(C#N)cc3)cc2)c2ccc(OC)cc2)cc1
absorption maximum (in C1CCOC1): 379 nm

SMILES: O=C1NC(=O)c2c1c1c3ccccc3[nH]c1c1[nH]c3ccccc3c21
absorption maximum (in C1CCOC1): 400 nm | absorption maximum (in CC#N): 402 nm | absorption maximum (in CC(C)OC(C)C): 391 nm | absorption maximum (in CCCCOCCCC): 393 nm | absorption maximum (in CCO): 405 nm | absorption maximum (in CCOC(C)=O): 398 nm | absorption maximum (in CN(C)C=O): 409 nm | absorption maximum (in Cc1ccccc1): 398 nm | absorption maximum (in ClCCl): 401 nm

SMILES: O=C(c1ccccc1)c1cc2ccc1CCc1ccc(c(-c3ccc(N(c4ccccc4)c4ccccc4)cc3)c1)CC2
absorption maximum (in Cc1ccccc1): 312 nm

SMILES: CCCCCCOc1ccc(N(c2ccc(OCCCCCC)cc2)c2ccc(-c3sc(-c4ccc(N(c5ccc(OCCCCCC)cc5)c5ccc(OCCCCCC)cc5)cc4)c4nc(CC)c(CC)nc34)cc2)cc1
absorption maximum (in ClCCl): 532 nm

SMILES: O=c1[nH]c2ccccc2[nH]1
absorption maximum (in C1CCOC1): 291 nm | absorption maximum (in CC#N): 281 nm | absorption maximum (in CC(C)=O): 285 nm | absorption maximum (in CCCCCCC): 292 nm | absorption maximum (in CCCCCl): 287 nm | absorption maximum (in CCCCO): 280 nm | absorption maximum (in CCCO): 280 nm | absorption maximum (in CCCOCCC): 280 nm | absorption maximum (in CCO): 280 nm

SMILES: CN(C)c1ccc2c(c1)[Si](C)(C)C1=CC(=[N+](C)C)C=CC1=C2
absorption maximum (in CO): 636 nm | absorption maximum (in O): 634 nm

SMILES: COc1cc(C)c2c(c1C)OC(=O)c1c(C)c(Cl)c(O)c(Cl)c1O2
absorption maximum (in ClC(Cl)Cl): 342 nm

SMILES: CC(C)=NO
absorption maximum (in CCO): 193 nm

SMILES: CCCC1=Cc2nc1ccc1[nH]c(cc1CCC)c1nc(c(OC(=O)CCCNC(=O)OC(C)(C)C)cc3[nH]c2cc3CCC)C(CCC)=C1
absorption maximum (in Cc1ccccc1): 645 nm

SMILES: CC(C)c1cc(C(C)C)c(B2c3ccccc3Oc3cc(N4c5ccccc5C5(c6ccccc6Oc6ccccc65)c5ccccc54)ccc32)c(C(C)C)c1
absorption maximum (in Cc1ccccc1): 429 nm

SMILES: CCCCC(CC)COc1cc(OCC(CC)CCCC)c2c#cc3ccc4oc5ccc(c#cc6cc(c#cc7ccc8oc9ccc(c#cc1c2)cc9c8c7)c(C(CCCC)OCCC)cc6C(CCCC)OCCC)cc5c4c3 (stereo not drawn)
absorption maximum (in ClCCl): 328 nm

SMILES: CCCCCCCCCCCCc1ccc(-c2cc(C)[o+]c(C)c2)cc1
absorption maximum (in CC#N): 350 nm | absorption maximum (in ClCCl): 370 nm

SMILES: CC(C)(C)c1cc(-c2c3cccc4c5cccc6c(-c7cc(C(C)(C)C)cc(C(C)(C)C)c7)c7cccc8c9cccc2c9c(c34)c(c65)c78)cc(C(C)(C)C)c1
absorption maximum (in Cc1ccccc1): 687 nm

SMILES: O=C([O-])c1c(Cl)c(Cl)c(Cl)c(Cl)c1-c1c2cc(I)c(=O)c(I)c-2oc2c(I)c([O-])c(I)cc12
absorption maximum (in CC(C)O): 561 nm | absorption maximum (in CCO): 558 nm | absorption maximum (in CO): 556 nm | absorption maximum (in O): 548 nm

SMILES: c1ccc(-c2nc(-c3ccc(-c4ccc(-n5c6ccccc6c6ccccc65)cc4)cn3)oc2-c2ccccc2)cc1
absorption maximum (in C1CCOC1): 333 nm | absorption maximum (in C1COCCO1): 326 nm | absorption maximum (in CC#N): 330 nm | absorption maximum (in CC(C)=O): 333 nm | absorption maximum (in CC(C)OC(C)C): 334 nm | absorption maximum (in CCCCCC): 336 nm | absorption maximum (in CCCCOCCCC): 336 nm | absorption maximum (in CCN(CC)CC): 333 nm | absorption maximum (in CCOC(C)=O): 332 nm | absorption maximum (in CCOCC): 333 nm | absorption maximum (in Cc1ccccc1): 338 nm | absorption maximum (in c1ccccc1): 338 nm

SMILES: N#Cc1cccc2cc[nH]c12
absorption maximum (in C1COCCO1): 307.36 nm | absorption maximum (in CC#N): 309.69 nm | absorption maximum (in O): 308 nm

SMILES: N#Cc1cc(-n2c3ccccc3c3ccccc32)nc(-n2c3ccccc3c3ccccc32)n1
absorption maximum (in Cc1ccccc1): 342 nm

SMILES: CC(C)(C)c1ccc2c(c1)c1cc(C(C)(C)C)ccc1n2-c1cc(N2c3ccccc3C(c3ccccc3)(c3ccccc3)c3ccccc32)cc(-n2c3ccc(C(C)(C)C)cc3c3cc(C(C)(C)C)ccc32)c1C#N
absorption maximum (in Cc1ccccc1): 378 nm

SMILES: CCCOc1ccc(/C=C/C=C/C=C/c2ccc([N+](=O)[O-])cc2)cc1
absorption maximum (in CC1CCCCC1): 414 nm | absorption maximum (in CC#N): 413 nm | absorption maximum (in Cc1ccccc1): 420 nm | absorption maximum (in ClCCl): 421 nm

More lines, now with the values ahead:

absorption maximum (in ClCCl): 310 nm
SMILES: Clc1ccc(N2c3sc4ccccc4c3Sc3sc4ccccc4c32)cc1

absorption maximum (in CC1CCCO1): 691 nm
SMILES: CC1=CC(/C=C/c2ccc3ccc4cccc5ccc2c3c45)=[N+]2C1=C(c1ccccc1)c1c(C)cc(/C=C/c3ccc4ccc5cccc6ccc3c4c56)n1[B-]2(F)F

absorption maximum (in ClCCl): 525 nm
SMILES: CCN1c2ccc(C3=CC(c4ccccc4)=[O+][B-](F)(F)O3)cc2Sc2cc(C3=CC(c4ccccc4)=[O+][B-](F)(F)O3)ccc21

absorption maximum (in ClC(Cl)Cl): 400 nm
SMILES: Cc1cc(C2=Cc3cccc[n+]3[B-](F)(F)O2)ccc1N(C)C

absorption maximum (in ClCCl): 534 nm
SMILES: COc1ccc(-c2cc(-c3ccccc3)c3n2[B-](F)(F)[N+]2=C4C=NC=CN4[B-](F)(F)[N+]2=C3)cc1

absorption maximum (in ClC(Cl)Cl): 506 nm
SMILES: N#CC1=CC(/C=C/c2ccccc2)=CC(C#N)=P1(c1ccccc1)c1ccccc1

absorption maximum (in CC#N): 397.05 nm | absorption maximum (in CCCCCC): 394.16 nm
SMILES: O=C1c2ccccc2-c2cnccc21

absorption maximum (in CS(C)=O): 368 nm
SMILES: O=C1CCCC2=C1C(c1ccccc1)c1c(c3ccccc3oc1=O)N2 (stereo not drawn)

absorption maximum (in CC#N): 310 nm | absorption maximum (in CO): 310 nm | absorption maximum (in O): 308 nm
SMILES: CN1CCN(CCCN2c3ccccc3Sc3ccc(C(F)(F)F)cc32)CC1

absorption maximum (in ClCCl): 379 nm
SMILES: COc1ccc(-c2ccc(/C=C/c3cnc4ccccc4n3)cc2)cc1

absorption maximum (in ClCCl): 353 nm
SMILES: CCOC(=O)c1ccc(C2=Cc3ccccc3P2(=O)c2ccccc2)cc1 (stereo not drawn)

absorption maximum (in ClCCl): 296 nm
SMILES: CCCCCCn1c2ccccc2c2cc(-c3ccc(-c4cc(-c5ccccn5)nc(-c5ccccn5)c4)cc3)ccc21

absorption maximum (in ClCCl): 631 nm
SMILES: F[B-]1(F)n2c(c3ccccc3c2-c2ccccc2)C(c2ccccc2)=C2c3ccccc3C(c3ccccc3)=[N+]21

absorption maximum (in ClCCl): 418 nm
SMILES: Cn1cc(-c2nc3ccccc3nc2C#Cc2ccc(C#N)cc2)c2ccccc21

absorption maximum (in ClCCl): 523 nm
SMILES: COc1ccc(-c2c3ccccc3c(C#Cc3ccccc3)c3cc4ccccc4cc23)cc1
